Tests used:
MRSA biofilm = test: Biofilm formation inhibition (crystal violet), MRSA; assay type: cell-based, S. aureus
Protocol: Bacteria in biofilms are known to tolerate antibiotic treatment and are thus more difficult to eradicate than planktonic cells. Biofilms formed by MRSA and E. coli have frustrated the treatment of persistent bacterial infections. Compound 12 was evaluated for its ability to inhibit biofilm formation of MRSA and E. coli. Overnight grown bacteria were inoculated into fresh 10% of MHII broth at a ratio of 1:100. 100 μL of inoculated culture was incubated with appropriated amounts of compound 12 in wells of 96-well plate. The plate was incubated at 37° C. for overnight. Optical density of each well was recorded at the wavelength of 600 nm and then the biofilm biomass was recorded by the crystal violet method. Biofilm biomass was presented as CV OD/OD of growth. Relative biofilm biomass values were normalized by the biomass value of control (no addition of compound). Experiments were conducted in triplicate and the data were presented as mean±STDEV.

S. aureus = test: Fluorescence microscopy (DAPI/PI) of bacterial membranes, S. aureus; assay type: cell-based; conditions: 2 h
Protocol: (§1) Fluorescence microscopy studies were conducted to evaluate the ability of compound 12 to compromise membranes of S. aureus (Gram-positive bacterium) and E. coli (Gram-negative bacterium). Fluorescent agent 4′,6-diamidino-2-phenylindole (DAPI) was used to stain membranes of bacterial cells with blue fluorescence regardless of cell viability, and the red fluorescence of propidium iodide (PI) due to the DNA intercalation was used to stain impaired membranes. After MRSA and E. Coli grew to mid-logarithmic phase, the compound 12 was incubated with the bacteria at 37° C. for 2 h. The mixture was then centrifuged at 5000 rpm for 15 min. The cell pellets were washed with the PBS buffer for three times, and incubated with PI ([…]) and DAPI (10 μg/mL) for 15 min sequentially on ice in the dark. The mixture was then centrifuged and the pellets were washed with the PBS buffer. Next, 10 μL of the samples were placed on chamber slides and observed under Zeiss Axio Image Zloptical microscope using 100× oil-immersion objective.

[1] = test system: vancomycin-resistant Enterococcus faecalis (ATCC 700802); test: MIC against VRE; assay type: cell-based; conditions: Gram +; 16 h, 37° C.
Protocol: (§2) Minimum Inhibitory Concentrations (MICs) Against Bacteria.
(§3) The antimicrobial activity of the compounds was tested on the following six bacteria strains: K. pneumoniae (ATCC 13383), P. aeruginosa (ATCC27853), E. coli (ATCC 25922), vancomycin-resistant Enterococcus faecalis(ATCC 700802), Methicillin-resistant S. aureus (MRSA, ATCC 33591), Methicillin-resistant S. epidermidis (MRSE, RP62A). The procedures were followed as reported previously (Hancock et al., Immunobiology 2006, 211, 315-322). Briefly, a single colony of each bacterium was inoculated in 3 mL TSB medium and incubated overnight at 37° C. Then the bacteria culture was diluted at 1:100 and the bacteria were allowed to grow to mid-logarithmic phase. Next, 50 μL of 2-fold serial dilutions of compounds (0.1-25 μg/mL) were added the 96-well plate containing aliquots of 50 μL of bacteria suspension (1×10^6 CFU/mL) in each well. The mixture was incubated at 37° C. for 16 h, and their absorption at 600 nm wavelength was read on a Biotek Synergy HT microtiter plate reader. […] The experiments were repeated at least three times with duplicates each time. HC50 means the concentration causing 50% hemolysis.

E. coli = test: Fluorescence microscopy (DAPI/PI) of bacterial membranes, E. coli; assay type: cell-based; conditions: 10 μg/mL, 2 h, 37° C.
Protocol: as §1

[2] = test system: six bacteria strains (K. pneumoniae, P. aeruginosa, E. coli, VRE, MRSA, MRSE); test: Antimicrobial activity on the panel of six bacteria strains; assay type: cell-based
Protocol: as §2, §3

[3] = test system: K. pneumoniae (ATCC 13383); test: MIC against K. pneumoniae; assay type: cell-based; conditions: Klebsiella pneumoniae, ATCC13383; Gram −; 16 h, 37° C.
Protocol: as §2, §3

[4] = test system: human red blood cells (hRBCs); test: Hemolytic assay; assay type: cell-based
Protocol: The freshly drawn, K2EDTA treated human red blood cells (hRBCs) were washed with 1×PBS buffer, and centrifuged at 3500 rpm for 10 min. The step was repeated until the supernatant became clear. The supernatant was removed, and the RBCs were diluted into 5% v/v suspension. 50 μL of the suspension was incubated with 50 μL of compounds of different concentrations at 37° C. for 1 h. The mixture was centrifuged at 3500 rpm for 10 min. Subsequently, to 30 μL of the supernatant 100 μL PBS was added, and the absorbance of the mixture at 540 nm was read on a Biotek Synergy HT plate reader. The positive control was 2% Triton X-100, and the negative control was 1×PBS alone. The hemolysis activity was calculated by the formula % hemolysis=(Abssample−AbsPBS)/(AbsTriton−AbsPBS)×100%. The experiment was repeated at least three times with duplicates each time.

With CCCCCCN1C(=N)N(CC(=O)Nc2cccc(NC(=O)CN3C[C@H](Cc4ccccc4)N(CCCCCC)C3=N)c2)C[C@@H]1Cc1ccccc1 [Compound 12] the “inhibition of biofilm formation” value (MRSA biofilm; 0.39 μg/mL) was “completely eradicated”, the inhibition at 0.19 µg/mL (MRSA biofilm; Staphylococcus aureus, 0.19 μg/mL) was 85% and the “membrane integrity of S. aureus (PI red fluorescence)” value (S. aureus; 10 μg/mL, 37° C.) was “disrupted”. The “aggregation of S. aureus” value (S. aureus; in the presence of compound) was “significant aggregation”, the MIC [1] was 0.75 µg/mL and the “membrane integrity of E. coli (PI red fluorescence)” value (E. coli) was “disrupted”. The “antibacterial activity against the tested bacteria (in words)” value [2] was “potent and broad-spectrum activity”, the MIC ([2]; read-out: MIC toward most strains) was 0.75 µg/mL and the MIC [3] was 0.75 µg/mL. For the same compound, the “selectivity, hemolytic activity against MIC values of MRSA” value [4] was 1534 folds.
